Reference: patent publication US20130317037A1, “METHOD OF ADMINISTRATION AND TREATMENT” (GlaxoSmithKline Intellectual Property Development Limited, priority 2010, published 2013)
Read-outs that look alike come from different tables or passages of the source.

Key:
Assay type in all cases: cell-based
in vitro = conditions: human
Protocol: (§1) From the stock concentration, 8 serial dilutions (1:5) were made with DMSO.
(§2) Day −1: Plate cells in 100 μl volume in 96 well plate. • Note: Cell number seeded adjusted for growth characteristics, so that at time of assay for proliferation following three-day drug treatment, the control wells should still be in log-growth phase (sub-confluent). Day 0: Drug added to plate for treatment. • A time 0 plate was processed for the proliferation assay to establish a baseline reading at time when drug was added.
(§3) LBNL are following the protocols set up by the NCI/NIH DTP Human Tumor Cell Line Screen Process (http://dtp.nci.nih.gov/branches/btb/ivclsp.html) and summarized below.
(§4) [(Ti−Tz)/(C−Tz)]×100 for concentrations for which Ti>/=Tz
(§5) [(Ti−Tz)/(C−Tz)]×100=50, • which is the drug concentration resulting in a 50% reduction in the net growth in control cells during the drug incubation. TGI: Total growth inhibition is calculated from
(§6) Ti=Tz. • The drug concentration resulting in total growth inhibition (down to the ‘time 0’ baseline). LC50: Net loss of cell growth at 50% is calculated from
(§7) [(Ti−Tz)/Tz]×100=−50. • The concentration of drug resulting in a 50% reduction in the cell number at the end of the drug treatment as compared to that at the beginning (time 0) indicating a net loss of cells following treatment.
(§8) Values are calculated for each of these three parameters if the level of activity is reached; however, if the effect is not reached or is exceeded, the value for that parameter is expressed as greater or less than the maximum or minimum concentration tested.

600MPE = experiment: cells
Protocol: as §1, §2, §3, §4, §5, §6, §7, §8

AU565 = experiment: cells
Protocol: as §1, §2, §3, §4, §5, §6, §7, §8

BT20 = experiment: cells
Protocol: as §1, §2, §3, §4, §5, §6, §7, §8

BT474 = experiment: cells
Protocol: as §1, §2, §3, §4, §5, §6, §7, §8

HCC1143 = experiment: cells
Protocol: as §1, §2, §3, §4, §5, §6, §7, §8

HCC1569 = experiment: cells
Protocol: as §1, §2, §3, §4, §5, §6, §7, §8

HCC1954 = experiment: cells
Protocol: as §1, §2, §3, §4, §5, §6, §7, §8

HCC70 = experiment: cells
Protocol: as §1, §2, §3, §4, §5, §6, §7, §8

MCF10A = experiment: cells
Protocol: as §1, §2, §3, §4, §5, §6, §7, §8

MCF10F = experiment: cells
Protocol: as §1, §2, §3, §4, §5, §6, §7, §8

MDAMB157 = experiment: cells
Protocol: as §1, §2, §3, §4, §5, §6, §7, §8

MDAMB175VII = experiment: cells
Protocol: as §1, §2, §3, §4, §5, §6, §7, §8

MDAMB361 = experiment: cells
Protocol: as §1, §2, §3, §4, §5, §6, §7, §8

MDAMB436L = experiment: cells
Protocol: as §1, §2, §3, §4, §5, §6, §7, §8

MDAMB468D = experiment: cells
Protocol: as §1, §2, §3, §4, §5, §6, §7, §8

SUM159PT = experiment: cells
Protocol: as §1, §2, §3, §4, §5, §6, §7, §8

T47DKBluc = experiment: cells
Protocol: as §1, §2, §3, §4, §5, §6, §7, §8

UACC812 = experiment: cells
Protocol: as §1, §2, §3, §4, §5, §6, §7, §8

UACC893D = experiment: cells
Protocol: as §1, §2, §3, §4, §5, §6, §7, §8

ZR75B = experiment: cells
Protocol: as §1, §2, §3, §4, §5, §6, §7, §8

[1] = Homo sapiens, 50% net loss of cells vs time 0, read-out: LC50 (the source's name)
[2] = Homo sapiens, 72 h, three-day drug treatment, read-out: gIC50

COc1ncc(-c2ccc3nccc(-c4ccnnc4)c3c2)cc1NS(=O)(=O)c1ccc(F)cc1F [Compound B, 2,4-difluoro-N-{2-(methyloxy)-5-[4-(4-pyridazinyl)-6-quinolinyl]-3-pyridinyl}benzenesulfonamide] gave a CC50 at 3 days (in vitro; 184A1 breast epithelium cells (HER2−, PIK3CA NA), 184A1, 50% net loss of cells vs time 0, read-out: LC50) of 26700 nM, a CC50 at 3 days (in vitro; 184B5 breast epithelium cells (HER2−, PIK3CA NA), 184B5, 50% net loss of cells vs time 0, read-out: LC50) greater than 33000 nM and a CC50 at 3 days (in vitro; MCF10A cells (breast epithelium; HER2−; PIK3CA NA), 50% net loss of cells vs time 0, read-out: LC50) of 6700 nM. For the same molecule, the CC50 at 3 days (in vitro; MCF10F cells (breast epithelium; HER2−; PIK3CA NA), 50% net loss of cells vs time 0, read-out: LC50) was 98.7 nM, the CC50 at 3 days (in vitro; MCF12A cells (breast epithelium; HER2−; PIK3CA wild type), 50% net loss of cells vs time 0, read-out: LC50) was 2760 nM and the CC50 (600MPE; [1]) was 875 nM. The IC50 (600MPE; [2]) was 6.8 nM, the TGI (600MPE; total growth inhibition) was 33.5 nM and the TGI (AU565; AU565, total growth inhibition) was 6700.0 nM. The IC50 (AU565; Homo sapiens, 72 h, AU565, three-day drug treatment, read-out: gIC50) was 7.2 nM, the CC50 (AU565; Homo sapiens, AU565, 50% net loss of cells vs time 0, read-out: LC50 (the source's name)) was greater than 33000 nM and the TGI (BT20; BT20, total growth inhibition) was 95.5 nM. The IC50 (BT20; Homo sapiens, BT-20, 72 h, BT20, three-day drug treatment, read-out: gIC50) was 14.8 nM, the CC50 (BT20; Homo sapiens, BT-20, BT20, 50% net loss of cells vs time 0, read-out: LC50 (the source's name)) was 468 nM and the TGI (BT474; BT474, total growth inhibition) was 20.1 nM. It also gave an IC50 (BT474; Homo sapiens, BT-474, 72 h, BT474, three-day drug treatment, read-out: gIC50) of 4.8 nM, a CC50 (BT474; Homo sapiens, BT-474, BT474, 50% net loss of cells vs time 0, read-out: LC50 (the source's name)) of 119 nM and a TGI (HCC1143; HCC1143, total growth inhibition) of 344.0 nM. For the same molecule, the IC50 (HCC1143; Homo sapiens, 72 h, HCC1143, three-day drug treatment, read-out: gIC50) was 34 nM, the CC50 (HCC1143; Homo sapiens, HCC1143, 50% net loss of cells vs time 0, read-out: LC50 (the source's name)) was 19500 nM and the TGI (HCC1569; HCC1569, total growth inhibition) was 67.4 nM. It also gave an IC50 (HCC1569; Homo sapiens, 72 h, HCC1569, three-day drug treatment, read-out: gIC50) of 16.3 nM, a CC50 (HCC1569; Homo sapiens, HCC1569, 50% net loss of cells vs time 0, read-out: LC50 (the source's name)) greater than 33000 nM and a TGI (HCC1954; HCC1954, total growth inhibition) of 32.3 nM. For the same molecule, the IC50 (HCC1954; Homo sapiens, 72 h, HCC1954, three-day drug treatment, read-out: gIC50) was 14.3 nM, the CC50 (HCC1954; Homo sapiens, HCC1954, 50% net loss of cells vs time 0, read-out: LC50 (the source's name)) was 54.2 nM and the TGI (HCC70; HCC70, total growth inhibition) was 26.8 nM. For the same molecule, the IC50 (HCC70; Homo sapiens, 72 h, HCC70, three-day drug treatment, read-out: gIC50) was 4.9 nM, the CC50 (HCC70; Homo sapiens, HCC70, 50% net loss of cells vs time 0, read-out: LC50 (the source's name)) was 118 nM and the IC50 (MCF10A; Homo sapiens, MCF-10A, 72 h, three-day drug treatment, read-out: gIC50) was 7.2 nM. It also gave a TGI (MCF10A; total growth inhibition) of 467.7 nM, an IC50 (MCF10F; Homo sapiens, MCF-10F, 72 h, three-day drug treatment, read-out: gIC50) of 2.4 nM and a TGI (MCF10F; total growth inhibition) of 14.3 nM. For the same molecule, the IC50 (MDAMB157; Homo sapiens, MDA-MB-157, 72 h, MDAMB157, three-day drug treatment, read-out: gIC50) was 398 nM, the CC50 (MDAMB157; Homo sapiens, MDA-MB-157, MDAMB157, 50% net loss of cells vs time 0, read-out: LC50 (the source's name)) was greater than 33000 nM and the TGI (MDAMB157; MDAMB157, total growth inhibition) was 3981.1 nM. For the same molecule, the CC50 (MDAMB175VII; Homo sapiens, MDA-MB-175-VII, 50% net loss of cells vs time 0, read-out: LC50 (the source's name)) was 501 nM, the IC50 (MDAMB175VII; Homo sapiens, MDA-MB-175-VII, 72 h, three-day drug treatment, read-out: gIC50) was 4.4 nM and the TGI (MDAMB175VII; total growth inhibition) was 13.5 nM. For the same molecule, the IC50 (MDAMB361; Homo sapiens, MDA-MB-361, 72 h, MDAMB361, three-day drug treatment, read-out: gIC50) was 1.7 nM, the CC50 (MDAMB361; Homo sapiens, MDA-MB-361, MDAMB361, 50% net loss of cells vs time 0, read-out: LC50 (the source's name)) was 26.9 nM and the TGI (MDAMB361; MDAMB361, total growth inhibition) was 4.9 nM. The CC50 (MDAMB436L; [1]) was greater than 33000 nM, the IC50 (MDAMB436L; [2]) was 13.2 nM and the TGI (MDAMB436L; total growth inhibition) was greater than 33000.0 nM. The CC50 (MDAMB468D; [1]) was 2240 nM, the IC50 (MDAMB468D; [2]) was 31.6 nM and the TGI (MDAMB468D; total growth inhibition) was 537.0 nM. For the same molecule, the CC50 (SUM159PT; Homo sapiens, SUM-159-PT, 50% net loss of cells vs time 0, read-out: LC50 (the source's name)) was greater than 33000 nM, the IC50 (SUM159PT; Homo sapiens, SUM-159-PT, 72 h, three-day drug treatment, read-out: gIC50) was 10.4 nM and the TGI (SUM159PT; total growth inhibition) was 940.6 nM. For the same molecule, the CC50 (T47DKBluc; [1]) was 9500 nM, the IC50 (T47DKBluc; [2]) was 15.4 nM and the TGI (T47DKBluc; total growth inhibition) was 74.3 nM. The IC50 (UACC812; Homo sapiens, UACC-812, 72 h, UACC812, three-day drug treatment, read-out: gIC50) was 4.9 nM, the TGI (UACC812; UACC812, total growth inhibition) was 24.0 nM and the IC50 (UACC893D; [2]) was 8.8 nM. It also gave a TGI (UACC893D; total growth inhibition) of 20.1 nM, a CC50 (ZR75B; Homo sapiens, ZR-75B, 50% net loss of cells vs time 0, read-out: LC50 (the source's name)) greater than 33000 nM and an IC50 (ZR75B; Homo sapiens, ZR-75B, 72 h, three-day drug treatment, read-out: gIC50) of 4.5 nM. The TGI (ZR75B; total growth inhibition) was 43.4 nM.
